The source of these data is patent US10729659B2, “Nanogel-mediated drug delivery” (The Cleveland Clinic Foundation, priority 2012, dated 2020).

Converted amounts (≈) assume the structure as drawn. Like-named read-outs stand apart in the source and are kept apart here.

The conditions of data set [1]: rat model; cited from earlier work.
A further data set concerns MCF-7 cells. The data set can be described thus: Cell cycle analysis by flow cytometry. Type of data set: cell-based, human. The following applies: DAC 50 ng/mL, dox 1 ng/mL, 48 h and 72 h, vs DAC alone or untreated. As to the method: (§1) Subconfluent cells were left untreated or treated with DAC (50 and 100 ng/mL) and dox (1 ng/mL) alone or in combination (sequential treatment) for 4-96 h. Cells were then trypsinized and then centrifuged at 1,300 rpm for 3 min at 4° C. Cell pellet was washed twice with ice cold 1X DPBS (pH 7.4) and resuspended in propidium iodide-(PI) solution (12.5 mg PI, 250 mg Sodium-Citrate and 250 μL Triton X-100 in 250 mL of water). Cells were then incubated in ice bucket, kept in cold room for 2 h, and DNA content was determined by flow cytometry using a FACScan flow cytometer (Becton Dickinson, San Jose, Calif.).
For orientation: In flow cytometry, cells or beads pass a laser one at a time.

The subject of data set [2] is MCF-7/Adr cells. The data set can be described thus: Cell cycle analysis by flow cytometry. Format: cell-based, human. The following applies: DAC 50 ng/mL, dox 1 ng/mL, 48 h and 72 h, vs DAC alone or untreated. As to the method: as §1
The subject of a further data set is BT 459. The data set can be described thus: Sequential treatment, cell viability by MTS assay. As to conditions: Homo sapiens, dox alone, read-out: IC50 (Dox ng/mL). Format: cell-based. The method, then: The efficacy of sequential treatment was tested in the following human breast cancer cell lines: MCF-7/Adr (drug resistant), MCF-7, MDAMB 231 and BT-459. Cells were seeded at 3000 cells per well/0.1 mL in 96-well plates (Microtest Becton Dickinson Labware, Franklin Lakes, N.J.). 24 h post seeding, cells were pretreated with DAC solution/nanogel for 24 h or 48 h and washed with 1×-DPBS. 0.1 mL of media containing dox solution or nanogel was added and incubated in CO2 incubator for 48 h. Cell viability was determined at the end of incubation period using a standard MTS assay (CellTiter 96 Aqueous, Promega, Madison, Wis.). To each well was added 20 μL of reagent, the plates were incubated for 2 h at 37° C. in cell culture incubator, and color intensity was measured at 490 nm using a micro plate reader (Bio-Tek Instrument, Winooski, Vt.). The effect of drug on cell proliferation was calculated as percentage growth of cells with respect to their respective controls. […]
(§2) The interaction between DAC and dox was analyzed using the Calcusyn software program (Biosoft, Ferguson, Mo.) to determine whether the simultaneous/sequential treatment was additive or synergistic.
Data from cell viability assay (MTS) was expressed as the fraction of cells killed by individual drugs or by their combination in drug-treated compared with untreated cells. […]
In general terms: Formazan colour is commonly taken as a measure of viable cells.

Data set [3] relates to MCF-7/Adr cells. In words: Cellular uptake of dox. Format: cell-based, human. As to conditions: dox alone treated MCF-7/Adr cells. The method, then: Drug resistant breast cancer cells were seeded in 24 well plates (1.2×10^6 cells/well). Post 48 h seeding, cells were pre-treated with DAC (50 ng/mL; 24 h); and then incubated with fixed concentration of dox (1 μg/mL) for indicated time points. Post drug incubation cell lysates in RIPA buffer was collected and lyophilized. Dox was extracted from lyophilized cell lysates using methanol as the solvent and analyzed by HPLC.

In the next data set the test system is dox sensitive cell lines. In words: Dox cell viability by MTS assay, sensitive cell lines. The following applies: Homo sapiens; range over sensitive cell lines. Type of data set: cell-based.
For another data set, the system named is MCF-7/Adr. The data set can be described thus: Sequential/simultaneous treatment, cell viability by MTS assay. Type of data set: cell-based, human. As to conditions: for IC50: Homo sapiens, NCI/ADR-RES. The method, then:
The efficacy of sequential treatment was tested in the following human breast cancer cell lines: MCF-7/Adr (drug resistant), MCF-7, MDAMB 231 and BT-459. Cells were seeded at 3000 cells per well/0.1 mL in 96-well plates (Microtest Becton Dickinson Labware, Franklin Lakes, N.J.). 24 h post seeding, cells were pretreated with DAC solution/nanogel for 24 h or 48 h and washed with 1×-DPBS. 0.1 mL of media containing dox solution or nanogel was added and incubated in CO2 incubator for 48 h. Cell viability was determined at the end of incubation period using a standard MTS assay (CellTiter 96 Aqueous, Promega, Madison, Wis.). To each well was added 20 μL of reagent, the plates were incubated for 2 h at 37° C. in cell culture incubator, and color intensity was measured at 490 nm using a micro plate reader (Bio-Tek Instrument, Winooski, Vt.). The effect of drug on cell proliferation was calculated as percentage growth of cells with respect to their respective controls. For simultaneous treatment DAC solution or nanogel, and dox solution or nanogel were added together to cells, and the above mentioned protocol was followed.
as §2
Data from cell viability assay (MTS) was expressed as the fraction of cells killed by individual drugs or by their combination in drug-treated compared with untreated cells. This program is based upon Chou-Talalay method. It calculates combination index (CI) of drugs. From the CI values, synergistic action of drugs can be analysed. The CI equal to 1, indicates the additive effect and CI<1 and CI>1, indicates synergistic and antagonistic activity respectively.

Method for dox sensitive cell lines: Cells were seeded at 3000 cells per well/0.1 mL in 96-well plates (Microtest Becton Dickinson Labware, Franklin Lakes, N.J.). […] Cell viability was determined at the end of incubation period using a standard MTS assay (CellTiter 96 Aqueous, Promega, Madison, Wis.). To each well was added 20 μL of reagent, the plates were incubated for 2 h at 37° C. in cell culture incubator, and color intensity was measured at 490 nm using a micro plate reader (Bio-Tek Instrument, Winooski, Vt.). The effect of drug on cell proliferation was calculated as percentage growth of cells with respect to their respective controls. For simultaneous treatment DAC solution or nanogel, and dox solution or nanogel were added together to cells, and the above mentioned protocol was followed.

Regarding `Nc1ncn([C@@H]2O[C@H](CO)[C@@H](O)[C@H]2O)c(=O)n1` [5-azacytidine], the Carcinogenicity result in data set [1] was “carcinogenic”.
On to `COc1cccc2c1C(=O)c1c(O)c3c(c(O)c1C2=O)C[C@@](O)(C(=O)CO)C[C@@H]3O[C@H]1C[C@H](N)[C@H](O)[C@H](C)O1` [Dox, doxorubicin], for which the G2/M arrest result in the data set on MCF-7 cells and in the data set on MCF-7/Adr cells [2] was “no difference” in each case. The IC50 in the data set on BT 459 is 102 ± 4.7 ng/mL; in the data set with dox sensitive cell lines it was 0.019 to 0.102 mg/L (≈ 0.035 to 0.188 µM); with MCF-7/Adr (dox alone, mean ± s.e.m., three experiments, read-out: IC50 (Dox ng/mL)), 7380 ng/mL; in the data set on MCF-7/Adr (pretreated with DAC 24 h, then dox 48 h, read-out: IC50 (Sequential - Deci + Dox ng/mL)) it was no more than 1 ng/mL. The “Incubation time after which drug concentration reached plateau” value in the data set on MCF-7/Adr cells [3] is 1 h. Also, in the data set on MCF-7/Adr (dox alone, mean ± s.e.m., three experiments), the “IC50 (Dox ng/mL)” value amounted to 7385.2 ± 698 ng/mL.
